Measured values: PMC12203577, “Molecular Basis of Pseudomonas syringae pv actinidiae Levansucrase Inhibition by a Multivalent Iminosugar” (Journal of Agricultural and Food Chemistry, 2025)
Where “and” joins values, the source holds several entries; their conditions need not be identical. Equal entries are not always repeated.

What was measured:
Lscγ [1] = biological target: T1, Lscγ (Pseudomonas syringae pv. actinidiae, UniProt A0A2V0R8Y2); test: Sucrose hydrolysis assay on recombinant Lscγ (DNS glucose quantification); type: biochemical, Pseudomonas syringae pv actinidiae biovar 3 (Psa3); details: for % Residual activity (sucrose hydrolysis), Lscγ: 100 μM iminosugar; for % Residual activity (sucrose hydrolysis), Lscγ / IC50: 60 mM sucrose
T1 construct: 6His-tag (TEV-cleavable) (cleaved yes); made in house; host or cells: E. coli BL21 (DE3)
T1 sequence (A0A2V0R8Y2 whole entry): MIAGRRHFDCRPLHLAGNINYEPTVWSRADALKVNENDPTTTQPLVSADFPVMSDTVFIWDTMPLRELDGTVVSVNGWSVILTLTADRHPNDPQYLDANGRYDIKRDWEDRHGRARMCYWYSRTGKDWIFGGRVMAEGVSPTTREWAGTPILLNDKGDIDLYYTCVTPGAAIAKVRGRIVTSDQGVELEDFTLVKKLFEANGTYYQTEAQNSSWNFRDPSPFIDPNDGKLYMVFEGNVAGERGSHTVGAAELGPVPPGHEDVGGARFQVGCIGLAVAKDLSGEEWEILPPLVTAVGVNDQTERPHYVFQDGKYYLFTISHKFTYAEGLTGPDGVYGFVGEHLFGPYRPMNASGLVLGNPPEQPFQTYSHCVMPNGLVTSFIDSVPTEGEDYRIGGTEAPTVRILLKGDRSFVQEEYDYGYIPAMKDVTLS
Protocol: (§1) Lscβ and Lscγ were produced and purified as reported by Luti et al. 2021. Briefly, the lscβ and lscγ genes of Psa3 KL103 were cloned in the pNIC28-Bsa4 plasmid and used to transform E. coli BL21 (DE3) cells (New England Biolabs). At A 600 (absorbance at 600 nm) = 0.6, protein expression was induced by 0.4 mM IPTG for 20 h at 18 °C. Then, cells were harvested by […], and recombinant proteins were purified using IMAC Sepharose High Performance (Ge Healthcare) charged with Ni^2+. Subsequently, the proteins were subjected to TEV (Tobacco Etch Virus protease) treatment to remove the 6His-tag and further purified by gel chromatography on a HiLoad 16/600 Superdex 200 pg column driven by an Akta Pure 25 L system (GE Healthcare, Waukesha, WI, USA). Pure proteins were stored in 10 mM Tris/HCl at pH 7.0 at −80 °C until further analysis.
(§2) The enzymatic assays to detect the inhibitory potential of the compounds on sucrose hydrolysis activity of Lscβ and Lscγ were performed according to Luti et al. 2021 in a total volume of 100 μL, using a Bis/Tris buffer (50 mM, pH 7.0). The experiments were performed at an enzyme concentration of 0.03 μg/μL with 60 mM sucrose and a final inhibitor concentration (compounds 1–4) of 100 μM, on a 10-min time frame. After the reactions were stopped, glucose concentration was measured using the DNS (3,5-dinitrosalicylic acid) method to determine spectrophotometrically the inhibitory activity of each compound. The enzymatic activity, measured as μmol/min·mL, was expressed as %residual enzymatic activity=[Ai/Ac]×100 , where A i is the absorbance of the samples with the inhibitors and A c is the absorbance of the control.
(§3) The inhibition levels of compounds 1–4 were analyzed by measuring their IC50. To quantify the IC50 values, we set up different enzymatic reactions at various concentrations of the inhibitor, and we monitored the effects of such concentrations on the enzymatic activity. The assay system was prepared as described above using a Bis/Tris buffer at pH 7.0 and 60 mM sucrose as the substrate. The inhibitor concentrations tested for both enzymes were 0, 0.01, 0.1, 0.5, 1, 10, 25, 50, 100, 200, 400, and 800 μM. Glucose released by the two enzymes was quantified using the DNS method and a microplate spectrophotometer. IC50 was defined as the concentration of a compound causing 50% inhibition, and it was calculated by drawing a dose–response graph for each compound using GraphPad Prism version 8.0 for Windows, GraphPad Software, San Diego, California, USA (www.graphpad.com). The response was expressed on the Y-axis as a percentage of enzymatic activity, and the […].
(§4) The inhibitory mechanism of TPIS (3) was determined by studying the dependence between the main kinetic parameters (K Mapp and V maxapp) and the inhibitor concentrations. Data obtained were fitted using the Michaelis–Menten equation and a nonlinear fitting software. Then, data were analyzed using the double reciprocal plot (Lineweaver–Burk method). Secondary plots were used to calculate the K i values by using GraphPad Prism version 8.0. In detail, the inhibitory mechanism of TPIS (3) was analyzed using 0, 25, 60, and 100 μM inhibitors for Lscβ and 0, 10, 25, and 100 μM for Lscγ. For each concentration, we set the sucrose concentration to 0, 10, 30, 50, 100, 200, 400, and 600 mM, and reactions were performed as previously described using an enzyme concentration of 0.02 μg/μL. After the reactions were stopped, glucose from enzymatic hydrolysis was quantified using the DNS method.

Lscβ = biological target: T2, Lscβ (Pseudomonas syringae pv. actinidiae, UniProt A0A2V0R8Q9); test: Sucrose hydrolysis assay on recombinant Lscβ (DNS glucose quantification); type: biochemical, Pseudomonas syringae pv actinidiae biovar 3 (Psa3); details: for % Residual activity (sucrose hydrolysis), Lscβ: 100 μM iminosugar; for % Residual activity (sucrose hydrolysis), Lscβ / IC50: 60 mM sucrose
T2 construct: 6His-tag (TEV-cleavable) (cleaved yes); made in house; host or cells: E. coli BL21 (DE3)
T2 sequence (A0A2V0R8Q9 whole entry): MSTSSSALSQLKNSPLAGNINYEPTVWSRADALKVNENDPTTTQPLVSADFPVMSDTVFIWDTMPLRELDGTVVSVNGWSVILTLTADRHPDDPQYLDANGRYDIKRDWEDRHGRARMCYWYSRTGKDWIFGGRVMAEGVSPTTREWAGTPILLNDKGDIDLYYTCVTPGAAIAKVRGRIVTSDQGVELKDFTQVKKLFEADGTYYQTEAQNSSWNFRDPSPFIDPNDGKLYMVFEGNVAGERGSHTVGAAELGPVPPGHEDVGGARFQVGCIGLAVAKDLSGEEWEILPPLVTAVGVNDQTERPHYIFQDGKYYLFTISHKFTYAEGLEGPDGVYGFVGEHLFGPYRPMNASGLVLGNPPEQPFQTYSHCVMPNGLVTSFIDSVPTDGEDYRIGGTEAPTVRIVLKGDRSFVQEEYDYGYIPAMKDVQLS
Protocol: as §1
as §2, with “The experiments were performed at an enzyme concentration of 0.03 μg/μL with 60 mM sucrose and a final inhibitor concentration (compounds 1–4) of 100 μM, on a 10-min time frame.” left out
as §3, §4

Lscγ [2] = biological target: T1, Lscγ; test: Levan synthesis turbidity assay with Lscγ; type: biochemical, Pseudomonas syringae pv actinidiae biovar 3 (Psa3)
Protocol: (§5) Inhibition of levan synthesis was monitored using a turbidity assay on a microtiter plate as reported by Luti et al. 2021 with slight modifications. The reaction was performed at 37 °C in 200 μL of 50 mM sodium acetate buffer at pH 5.0 containing 60 mM sucrose and 10 μg of purified Lscγ protein per mL of reaction mixture. The turbidity of the samples at 400 nm was recorded every 5 min using a BioTek Synergy H1 Hybrid Multimode Reader. The percent inhibition was determined at 60 min of incubation, at the maximum absorbance, and was determined as defined in the previous section, Sucrose Hydrolysis Assay. For the IC50 determinations, we used a 0–200 μM TPIS (3) concentration and defined the activity as previously reported. For macroscopic evaluation of levan synthesis inhibition, a 10 μL drop of 1 μg/μL Lscγ was applied on an agar sucrose (5% w/v) plate alone or with 100 μM TPIS (3). A picture was taken after 24 h at 4 °C.

Lscγ [3] = biological target: T1, Lscγ; test: Macroscopic evaluation of levan synthesis by Lscγ on agar sucrose plate; type: biochemical, Pseudomonas syringae pv actinidiae biovar 3 (Psa3); details: 100 μM, 10 μL drop of 1 μg/μL Lscγ, 24 h
Protocol: as §5

[4] = system: CFBP8414 whole cell lysate; test: Macroscopic levan synthesis by lysate on agar sucrose plate, CFBP8414; type: biochemical, P. syringae pv actinidiae biovar 5; details: 100 μM, 72 h
Protocol: (§6) To extract total protein, cell pellets were resuspended in 1 mL of ice-cold RIPA Buffer with Protease Inhibitors Cocktail, and cells were lysed by sonication using a Fisher Scientific Model 120 Sonic Dismembrator. The sonication step was carried out on ice with three pulses of 15 s at 30% amplitude, each followed by 30 s cooldown. Sonicated samples were cleared by centrifugation for 15 min at 15,000 × g at 4 °C. The pellet was discarded, while the supernatant was collected and stored at −20 °C for further analysis. The hydrolysis enzymatic reaction was carried out as previously described with 60 mM sucrose and 7 μL of cell lysate for 1.5 h. After the samples were boiled, glucose was quantified using the DNS method. For macroscopic evaluation of levan synthesis inhibition, a 10 μL drop of lysates was applied on an agar sucrose (5% w/v) plate alone or with 100 μM TPIS (3). A picture was taken after 72 h at 4 °C.

[5] = system: CFBP8414 whole cell lysate; test: Sucrose hydrolysis by whole cell lysate, CFBP8414; type: biochemical, P. syringae pv actinidiae biovar 5; details: 100 μM, 60 mM sucrose
Protocol: (§7) The strains CFBP8414 (P. syringae pv actinidiae biovar 5) and CFBP1390 (P. syringae pv phaseolicola) were purchased from the CIRM-CFBP French Collection for Plant Associated Bacteria, while KL103 (P. syringae pv actinidiae biovar 3) was isolated in Tuscany in 2015, as reported by Campigli et al., 2023.
(§8) Bacterial cells were grown in 50 mL of Nutrient Sucrose (5% w/v) for 48 h at 180 rpm at 27 °C. Cell suspensions were diluted to an A 600 of 1 (10^7 cfu/mL) in water, and 1 mL aliquots were centrifuged for 5 min at 15,000 × g at 4 °C. The supernatant was discarded, while the pellet was stored at −20 °C for further analysis.
as §6, with “For macroscopic evaluation of levan synthesis inhibition, a 10 μL drop of lysates was applied on an agar sucrose (5% w/v) plate alone or with 100 μM TPIS (3). A picture was taken after 72 h at 4 °C.” left out

[6] = system: CFBP1390 whole cell lysate; test: Macroscopic levan synthesis by lysate on agar sucrose plate, CFBP1390; type: biochemical, P. syringae pv phaseolicola; details: 100 μM, 72 h
Protocol: as §6

Jack bean α-mannosidase = details: cited from earlier work
[7] = system: CFBP1390 whole cell lysate; test: Sucrose hydrolysis by whole cell lysate, CFBP1390; type: biochemical, P. syringae pv phaseolicola; details: 100 μM, 60 mM sucrose
Protocol: as §7, §8
as §6, with “For macroscopic evaluation of levan synthesis inhibition, a 10 μL drop of lysates was applied on an agar sucrose (5% w/v) plate alone or with 100 μM TPIS (3). A picture was taken after 72 h at 4 °C.” left out

KL103 whole cell lysate [8] = test: Sucrose hydrolysis by whole cell lysate, KL103; type: biochemical, P. syringae pv actinidiae biovar 3; details: 100 μM, 60 mM sucrose
Protocol: as §7, §8
as §6, with “For macroscopic evaluation of levan synthesis inhibition, a 10 μL drop of lysates was applied on an agar sucrose (5% w/v) plate alone or with 100 μM TPIS (3). A picture was taken after 72 h at 4 °C.” left out

KL103 whole cell lysate [9] = test: Macroscopic levan synthesis by lysate on agar sucrose plate, KL103; type: biochemical, P. syringae pv actinidiae biovar 3; details: 100 μM, 72 h
Protocol: as §6

OCCc1cn(CCCCCCN2C[C@@H](O)[C@H](O)[C@H]2CO)nn1 [Compound 4]
% Residual activity (sucrose hydrolysis), Lscγ (Lscγ [1]; pH 7.0): 126 ± 50%
% Residual activity (sucrose hydrolysis), Lscγ (Lscγ [1]; pH 7.0, listed as PIS (4)): does not inhibit
IC50 (Lscγ [1]; pH 7.0): > 1000 µM
% Residual activity (sucrose hydrolysis), Lscβ (Lscβ; pH 7.0): 93 ± 12%
IC50 (Lscβ; pH 7.0): > 1000 µM
inhibition at 100 µM (Lscβ; pH 7, read-out: inhibitory activity on sucrose hydrolysis, Lscβ): ~7%
remaining activity at 1000 µM (Lscβ; read-out: residual activity at 1 mM, Lscβ): 40%

OC[C@H]1NC[C@@H](O)[C@@H]1O [Compound 1, 1,4-dideoxy-1,4-imino-D-arabinitol]
% Residual activity (sucrose hydrolysis), Lscγ (Lscγ [1]; pH 7.0): 101 ± 12%
IC50 (Lscγ [1]; pH 7.0): > 100 µM
% Residual activity (sucrose hydrolysis), Lscβ (Lscβ; pH 7.0): 103 ± 6%
% Residual activity (sucrose hydrolysis), Lscβ (Lscβ; pH 7.0, listed as DAB-1 (1)): do not affect Lscβ activity at all
IC50 (Lscβ; pH 7.0): > 100 µM

OC[C@H]1O[C@@](CO)(O[C@H]2O[C@H](CO)[C@@H](O)[C@H](O)[C@H]2O)[C@@H](O)[C@@H]1O [Sucrose]
KMapp of Lscγ for sucrose (Lscγ [1]; substrate, pH 7.0): KMapp(mM) 59 ± 12
KMapp of Lscβ for sucrose (Lscβ; substrate, pH 7.0): KMapp (mM) 57 ± 11

OC[C@@H]1[C@@H](O)[C@H](O)CN1CCCCCCn1cc(COCC(COCc2cn(CCCCCCN3C[C@@H](O)[C@H](O)[C@H]3CO)nn2)(COCc2cn(CCCCCCN3C[C@@H](O)[C@H](O)[C@H]3CO)nn2)COCc2cn(CCCCCCN3C[C@@H](O)[C@H](O)[C@H]3CO)nn2)nn1 [Compound 3]
residual polymerization activity (levan production), Lscγ (Lscγ [2]; 100 μM, pH 5.0, 60 min): 46 ± 3%
IC50 (Lscγ [2]; pH 5.0, 60 min of incubation, estimated, read-out: IC50, polymerization activity of Lscγ): 37 µM
macroscopic levan production by Lscγ on agar sucrose plate (Lscγ [3]): limits levan production
macroscopic levan synthesis, CFBP8414 lysate [4]: able to limit levan synthesis
% Residual activity (sucrose hydrolysis), Lscγ (Lscγ [1]; pH 7.0): 36 ± 5%
IC50 (Lscγ [1]; pH 7.0): 60.9 µM
inhibition mechanism, Lscγ (Lscγ [1]; KMapp increases, Vmaxapp not affected, versus sucrose): competitive inhibitor
Ki (Lscγ [1]; secondary plot, pH 7.0, read-out: K i, sucrose hydrolysis, Lscγ): 20 µM
residual sucrose hydrolysis activity, CFBP8414 lysate [5]: 44 ± 11%
macroscopic levan synthesis, CFBP1390 lysate [6]: able to limit levan synthesis
% Residual activity (sucrose hydrolysis), Lscβ (Lscβ; pH 7.0): 49 ± 5%
IC50 (Lscβ; pH 7.0): 22 µM and 22.4 µM
inhibition mechanism, Lscβ (Lscβ; KMapp increases, Vmaxapp does not vary, versus sucrose): competitive inhibitor
Ki (Lscβ; secondary plot, pH 7.0, read-out: K i, sucrose hydrolysis, Lscβ): 29 µM
rp/n (rp divided by valency), Lscβ (Lscβ; sucrose hydrolysis): > 11
IC50 (Jack bean α-mannosidase; already demonstrated in earlier work): 34 µM
rp/n, Jack bean α-mannosidase (Jack bean α-mannosidase; relative potency with respect to monovalent counterpart per active unit, earlier work): 10
residual sucrose hydrolysis activity, CFBP1390 lysate [7]: 55 ± 3%
residual sucrose hydrolysis activity, KL103 lysate (KL103 whole cell lysate [8]): 54 ± 7%
macroscopic levan synthesis, KL103 lysate (KL103 whole cell lysate [9]): able to limit levan synthesis

OC[C@@H]1[C@@H](O)[C@H](O)CN1CCO[C@@H]1O[C@H](CO)[C@@H](O)[C@H](O)[C@H]1O [Compound 2]
% Residual activity (sucrose hydrolysis), Lscγ (Lscγ [1]; pH 7.0): 85 ± 8%
IC50 (Lscγ [1]; pH 7.0): > 100 µM
IC50 (Lscβ; pH 7.0): > 100 µM
